Test results from patent US20260130933A1, “PHARMACEUTICAL COMPOSITION FOR PREVENTION OR TREATMENT OF NEPHROPATHY AND/OR DIABETES MELLITUS, COMPRISING ENAVOGLIFLOZIN” (DAEWOONG PHARMACEUTICAL CO., LTD., priority 2022, published 2026).

Assay: Example 1: phase 3 trial, enavogliflozin 0.3 mg once a day as monotherapy vs placebo for 24 weeks in patients with type 2 diabetes (HbA1c, FPG, C-peptide, body weight, lipids, blood pressure, HOMA, UACR, UGCR, adiponectin, leptin, safety)
Assay type: in vivo, human
Method: When a subject voluntarily gave written consent to participate in this clinical trial, a screening test was conducted. […] However, when the administration of a hypoglycemic agent was interrupted before the clinical trial Visit 1 (screening), at least an 8-week washout period, including the discontinuation period, was required, and during this period, a stable diet and exercise program was followed. Naïve patients were screened without a separate washout period, and the criteria for naïve patients were defined as patients who had not been administered hypoglycemic agents within 24 weeks prior to the date of obtaining written consent. […] In addition, they were instructed to maintain regular exercise and dietary control starting from 8 weeks prior to screening without changing their daily life patterns during the clinical trial period.

**Q.** For `OC[C@H]1O[C@@H](c2cc(Cc3ccc(C4CC4)cc3)c(Cl)c3c2CCO3)[C@H](O)[C@@H](O)[C@@H]1O` [Enavogliflozin, (2S,3R,4R,5S,6R)-2-(7-chloro-6 (4-cyclopropylbenzyl)-2,3-dihydrobenzofuran-4-yl)-6-(hydroxymethyl)tetrahydro-2H-pyran-3,4,5-triol], which “HbA1c, Mean (SD)” value (week 18) is on record?
**A.** 6.88(0.54) %

**Q.** What about the “LDL-C change from baseline, LS mean” value (week 18) of the same compound?
**A.** -0.32 mg/dL

**Q.** And the “LDL-C change from baseline, Mean” value (week 18)?
**A.** 1.69 mg/dL

**Q.** What about the “LDL-C, Mean” value (week 18) of the same compound?
**A.** 97.16 mg/dL

**Q.** And the “Subjects achieving HbA1c target of <6.5%” value (week 18)?
**A.** 24(29.27) %

**Q.** And the “Subjects achieving HbA1c target of <7%” value (week 18)?
**A.** 47(57.32) %

**Q.** And the “Subjects achieving therapeutic glycemic response (HbA1c change >0.5% or HbA1c<7%)” value (week 18)?
**A.** 60(73.17) %

**Q.** What about the “Systolic blood pressure, Mean” value (week 18) of the same compound?
**A.** 121.63 mmHg

**Q.** And the “body weight change from baseline, LS mean” value (week 18)?
**A.** -3.42 kg

**Q.** What about the “body weight change from baseline, Mean” value (week 18) of the same compound?
**A.** -3.44 kg

**Q.** What about the “diastolic blood pressure change from baseline, LS mean” value (week 18) of the same compound?
**A.** −4.09 mmHg

**Q.** What about the “diastolic blood pressure change from baseline, Mean” value (week 18) of the same compound?
**A.** −3.63 mmHg

**Q.** What about the fasting C-peptide, Mean (SD) (week 18) of the same compound?
**A.** 0.65 ng/mL

**Q.** What about the “systolic blood pressure change from baseline, LS mean” value (week 18) of the same compound?
**A.** −6.56 mmHg

**Q.** And the “systolic blood pressure change from baseline, Mean” value (week 18)?
**A.** −6.22 mmHg

**Q.** What about the “total cholesterol change from baseline, LS mean” value (week 18) of the same compound?
**A.** 6.45 mg/dL

**Q.** What about the “total cholesterol change from baseline, Mean” value (week 18) of the same compound?
**A.** 8.40 mg/dL

**Q.** What about the “total cholesterol, Mean” value (week 18) of the same compound?
**A.** 169.82 mg/dL

**Q.** What about the “triglycerides change from baseline, LS mean” value (week 18) of the same compound?
**A.** -8.82 mg/dL

**Q.** What about the “triglycerides change from baseline, Mean” value (week 18) of the same compound?
**A.** -4.14 mg/dL

**Q.** What about the “triglycerides, Mean” value (week 18) of the same compound?
**A.** 113.30 mg/dL

**Q.** What about the “FPG change from baseline, LS mean difference” value (week 18, vs placebo) of the same compound?
**A.** -33.40 mg/dL

**Q.** What about the “HDL-C change from baseline, LS mean difference” value (week 18, vs placebo) of the same compound?
**A.** 2.69 mg/dL

**Q.** What about the “HOMA-IR change from baseline, LS mean difference” value (week 18, vs placebo) of the same compound?
**A.** −1.49

**Q.** And the “HOMA-β change from baseline, LS mean difference” value (week 18, vs placebo)?
**A.** 22.40

**Q.** What about the “HbA1c change from baseline, LS mean difference” value (week 18, vs placebo) of the same compound?
**A.** −0.79 % p

**Q.** What about the “LDL-C change from baseline, LS mean difference” value (week 18, vs placebo) of the same compound?
**A.** -2.35 mg/dL

**Q.** And the “Odds ratio for achieving HbA1c<6.5%” value (week 18, vs placebo)?
**A.** 5.58

**Q.** And the “Odds ratio for achieving HbA1c<7%” value (week 18, vs placebo)?
**A.** 4.85

**Q.** And the “Odds ratio for achieving therapeutic response” value (week 18, vs placebo)?
**A.** 7.45

**Q.** What about the “UACR change from baseline, LS mean difference” value (week 18, vs placebo) of the same compound?
**A.** -13.39 g/kg

**Q.** And the “UGCR change from baseline, LS mean difference” value (week 18, vs placebo)?
**A.** 47.66 mg/mg

**Q.** What about the “adiponectin change from baseline, LS mean difference” value (week 18, vs placebo) of the same compound?
**A.** 1.04 µg/mL

**Q.** And the “body weight change from baseline, LS mean difference” value (week 18, vs placebo)?
**A.** -2.37 kg

**Q.** And the “diastolic blood pressure change from baseline, LS mean difference” value (week 18, vs placebo)?
**A.** −1.90 mmHg

**Q.** What about the fasting C-peptide change from baseline, LS mean difference (week 18, vs placebo) of the same compound?
**A.** -0.11 ng/mL

**Q.** And the “leptin change from baseline, LS mean difference” value (week 18, vs placebo)?
**A.** -2.36 ng/mL

**Q.** What about the “systolic blood pressure change from baseline, LS mean difference” value (week 18, vs placebo) of the same compound?
**A.** −3.36 mmHg

**Q.** And the “total cholesterol change from baseline, LS mean difference” value (week 18, vs placebo)?
**A.** -0.99 mg/dL

**Q.** And the “triglycerides change from baseline, LS mean difference” value (week 18, vs placebo)?
**A.** -17.74 mg/dL

**Q.** And the “Body weight, Mean” value (week 24)?
**A.** 65.28 kg

**Q.** And the “Diastolic blood pressure, Mean” value (week 24)?
**A.** 72.68 mmHg

**Q.** What about the “FPG change from baseline, LS mean (SE)” value (week 24) of the same compound?
**A.** −31.66(3.68) mg/dL

**Q.** And the “FPG change from baseline, Mean (SD)” value (week 24)?
**A.** −30.00(20.73) mg/dL

**Q.** What about the “FPG, Mean (SD)” value (week 24) of the same compound?
**A.** 111.00(14.56) mg/dL

**Q.** And the “HDL-C change from baseline, LS mean” value (week 24)?
**A.** 4.39 mg/dL

**Q.** And the “HDL-C change from baseline, Mean” value (week 24)?
**A.** 4.13 mg/dL

**Q.** What about the “HDL-C, Mean” value (week 24) of the same compound?
**A.** 56.05 mg/dL

**Q.** And the “HbA1c change from baseline, LS mean (SE)” value (week 24)?
**A.** −0.88(0.10) % p

**Q.** And the “HbA1c change from baseline, Mean (SD)” value (week 24)?
**A.** −0.84(0.66) % p

**Q.** And the “HbA1c, Mean (SD)” value (week 24)?
**A.** 6.80(0.59) %

**Q.** What about the “LDL-C change from baseline, LS mean” value (week 24) of the same compound?
**A.** -2.92 mg/dL

**Q.** And the “LDL-C change from baseline, Mean” value (week 24)?
**A.** -1.03 mg/dL

**Q.** And the “LDL-C, Mean” value (week 24)?
**A.** 94.44 mg/dL

**Q.** What about the “Subjects achieving HbA1c target of <6.5%” value (week 24) of the same compound?
**A.** 29(35.37) %

**Q.** What about the “Subjects achieving HbA1c target of <7%” value (week 24) of the same compound?
**A.** 58(70.73) %

**Q.** And the “Subjects achieving therapeutic glycemic response (HbA1c change >0.5% or HbA1c<7%)” value (week 24)?
**A.** 68(82.93) %

**Q.** And the “Systolic blood pressure, Mean” value (week 24)?
**A.** 121.29 mmHg

**Q.** What about the “body weight change from baseline, LS mean” value (week 24) of the same compound?
**A.** -3.47 kg

**Q.** What about the “body weight change from baseline, Mean” value (week 24) of the same compound?
**A.** -3.48 kg

**Q.** And the “diastolic blood pressure change from baseline, LS mean” value (week 24)?
**A.** −3.92 mmHg

**Q.** And the “diastolic blood pressure change from baseline, Mean” value (week 24)?
**A.** −3.55 mmHg

**Q.** And the fasting C-peptide, Mean (SD) (week 24)?
**A.** 0.64 ng/mL

**Q.** What about the “systolic blood pressure change from baseline, LS mean” value (week 24) of the same compound?
**A.** −7.27 mmHg

**Q.** And the “systolic blood pressure change from baseline, Mean” value (week 24)?
**A.** −6.55 mmHg

**Q.** And the “total cholesterol change from baseline, LS mean” value (week 24)?
**A.** 4.84 mg/dL

**Q.** What about the “total cholesterol change from baseline, Mean” value (week 24) of the same compound?
**A.** 6.58 mg/dL

**Q.** And the “total cholesterol, Mean” value (week 24)?
**A.** 168.00 mg/dL

**Q.** And the “triglycerides change from baseline, LS mean” value (week 24)?
**A.** -0.08 mg/dL

**Q.** What about the “triglycerides change from baseline, Mean” value (week 24) of the same compound?
**A.** 1.95 mg/dL

**Q.** And the “triglycerides, Mean” value (week 24)?
**A.** 119.39 mg/dL

**Q.** And the “FPG change from baseline, LS mean difference” value (week 24, vs placebo)?
**A.** -40.08 mg/dL

**Q.** And the “HDL-C change from baseline, LS mean difference” value (week 24, vs placebo)?
**A.** 4.05 mg/dL

**Q.** What about the “HOMA-IR change from baseline, LS mean difference” value (week 24, vs placebo) of the same compound?
**A.** −1.94

**Q.** What about the “HOMA-β change from baseline, LS mean difference” value (week 24, vs placebo) of the same compound?
**A.** 5.88

**Q.** What about the “HbA1c change from baseline, LS mean difference” value (week 24, vs placebo) of the same compound?
**A.** −0.99 % p

**Q.** And the “LDL-C change from baseline, LS mean difference” value (week 24, vs placebo)?
**A.** -6.91 mg/dL

**Q.** And the “Odds ratio for achieving HbA1c<6.5%” value (week 24, vs placebo)?
**A.** 12.10

**Q.** What about the “Odds ratio for achieving HbA1c<7%” value (week 24, vs placebo) of the same compound?
**A.** 9.08

**Q.** And the “Odds ratio for achieving therapeutic response” value (week 24, vs placebo)?
**A.** 12.98

**Q.** What about the “UACR change from baseline, LS mean difference” value (week 24, vs placebo) of the same compound?
**A.** -13.92 g/kg

**Q.** What about the “UGCR change from baseline, LS mean difference” value (week 24, vs placebo) of the same compound?
**A.** 47.36 mg/mg

**Q.** And the “adiponectin change from baseline, LS mean difference” value (week 24, vs placebo)?
**A.** 0.98 µg/mL

**Q.** What about the “body weight change from baseline, LS mean difference” value (week 24, vs placebo) of the same compound?
**A.** -2.47 kg

**Q.** What about the “diastolic blood pressure change from baseline, LS mean difference” value (week 24, vs placebo) of the same compound?
**A.** −3.12 mmHg

**Q.** What about the fasting C-peptide change from baseline, LS mean difference (week 24, vs placebo) of the same compound?
**A.** -0.13 ng/mL

**Q.** And the “leptin change from baseline, LS mean difference” value (week 24, vs placebo)?
**A.** -2.99 ng/mL

**Q.** What about the “systolic blood pressure change from baseline, LS mean difference” value (week 24, vs placebo) of the same compound?
**A.** −5.75 mmHg

**Q.** And the “total cholesterol change from baseline, LS mean difference” value (week 24, vs placebo)?
**A.** -6.40 mg/dL

**Q.** What about the “triglycerides change from baseline, LS mean difference” value (week 24, vs placebo) of the same compound?
**A.** -28.56 mg/dL
